Results published in patent US10246711B2, “RNAi inhibitors of glucose-6-phosphate dehydrogenase for treating cardiovascular and pulmonary conditions” (priority 2016, dated 2019).

Assays:
Assay type in all cases: cell-based
G6PD protein = test: Western blot of G6PD protein in hypoxic rat pulmonary artery smooth muscle cells; details: rat PASMC; 50 ng and 100 ng; hypoxia (1% O2) 72 hr; compared to untransfected (UT), non-targeting (NT) and G6PD-siRNA#1; FIG. 4A
Method: (§1) FIGS. 4A-4B are blots showing rat pulmonary artery smooth muscle cells that were cultured in 15% DMEM for 48 hr and transfected with G6PD-siRNA#1 and G6PD-siRNA#2, respectively (0.5 and 1.0 μl=50 ng and 100 ng, respectively). The cells were then subjected to hypoxia (1% 02) for 72 hr. Expression of G6PD protein was estimated using western blot analyses. UT=Untransfected; NT=non-targeting/scrambled sequence (FIG. 4A). Beta-Actin (ACTB) was used as loading control. FIG. 4B are blots showing the effect of G6PD-siRNA#2 treatment, on the expression of G6PD (FIG. 4B-panel 2), polymerase delta (FIG. 4B-panel 3), cyclin E1 (FIG. 4B-panel 4), and cyclin B (FIG. 4B-panel 5), under normoxic and hypoxic conditions, in these cells were determined using Western blot analyses. GAPDH was used as a loading control.
(§2) In FIGS. 4A-B, rat pulmonary artery smooth muscle cells were cultured in 15% DMEM for 48 hr. Cells were then transfected with G6PD-siRNA#1 and G6PD-siRNA#2, respectively (0.5 and 1.0 μl=50 ng and 100 ng, respectively) and subjected to hypoxia (1% 02) for 72 hr. […] GAPDH was used as a loading control.

[1] = tested on: polymerase delta, cyclin E1, cyclin B1; test: Western blot of replication and cell cycle proteins in rat pulmonary artery smooth muscle cells; details: rat PASMC, normoxic and hypoxic conditions
Method: as §1, §2

G6PD = G6PD knockdown by G6PD-specific siRNA sequence (preliminary results); details: based on preliminary results
Method: PASM cells cultured in a 12-well plate were transfected for 72 h with 100 nmol/1 shRNA targeting G6PD using lipid-based and nano-particle based transfection system. Control experiments were performed using a nontargeting/scrambled (NT) shRNA (negative control).

| Substance | G6PD protein expression (G6PD protein) | expression of polymerase delta ([1]; FIG. 4B-panel 3) | expression of cyclin E1 ([1]; FIG. 4B-panel 4) | expression of cyclin B1 ([1]; FIG. 4B-panel 5) | downregulation of G6PD (G6PD) |
| --- | --- | --- | --- | --- | --- |
| G6PD-siRNA#2: Sense (SEQ ID NO. 6) 5′ CGACGAAGCGCAGACAGCGUC 3′; Antisense (SEQ ID NO. 7) 5′GACGCUGUCUGCGCUUCGUCG3′ (listed as RNA, chemistry not given here) | significantly down-regulated | significantly down-regulated | significantly down-regulated | significantly down-regulated |  |
| SEQ ID NO: 2: G6PD-specific siRNA gene sequence CAACAUCGCCUGCGUUAUC; nucleotide positions 922-940 of SEQ ID NO. 1 (expressed or natural sequence) |  |  |  |  | specifically and efficaciously downregulated G6PD |
